From ChEMBL document CHEMBL6114940, “Exploring the pharmaceutical potential of ammonium organotrifluoroborate functional group: Comprehensive chemical, metabolic, and plasma stability evaluation” (Eur J Med Chem, 2024)
One block for each molecule: values may come before it. Calls of active or inactive are those of the source. No cut-off for these calls is given here.

Key:
[1] = Stability of compound in 0.9 % saline solution assessed as solvolysis constant (K) incubated for 72 hrs by LC-MS analysis; assay type: physicochemical; conditions: buffer
U-87 MG [2] = assay: Cytotoxicity against human U-87 MG assessed as reduction in cell viability at 0.1 to 300 uM incubated for 72 hrs by MTT assay; assay type: functional, cell-based; conditions: U-87MG ATCC, dose 0.1-300 µM
[3] = Stability of compound in 20 mM CH3COONH4 buffer at pH 5.8 assessed as half life incubated for 72 hrs by LC-MS analysis; assay type: physicochemical; conditions: 20 mM ammonium acetate (CH3COONH4) buffer
Fibroblast [4] = assay: Cytotoxicity against human fibroblast assessed as reduction in cell viability at 0.1 to 300 uM incubated for 24 to 48 hrs by MTT assay; assay type: toxicity, cell-based; conditions: dose lower 0.1 µM, time lower 24 hrs, dose upper 300 µM, time upper 48 hrs
[5] = Stability of compound in 0.9 % saline solution assessed as half life incubated for 72 hrs by LC-MS analysis; assay type: physicochemical
[6] = Stability in mouse plasma measured after 1 hr by LC-HRMS analysis; assay type: ADME, cell-free; conditions: read-out: Stability
[7] = Stability of compound in 0.9 % saline solution assessed as 1-borono-N,N-dimethyl-N-((1-((3R,4R,5S,6R)-2,4,5-trihydroxy-6-(hydroxymethyl)tetrahydro-2H-pyran-3-yl)-1H-1,2,3-triazol-4-yl)methyl)methanaminium formation incubated for 72 hrs by LC-MS analysis; assay type: physicochemical; conditions: buffer
Fibroblast [8] = assay: Cytotoxicity against human fibroblast assessed as reduction in cell viability upto 100 uM incubated for 24 to 72 hrs by MTT assay; assay type: toxicity, cell-based; conditions: time 24-72 hrs
[9] = Stability of compound in 0.05 M HCL assessed as 1-borono-N,N-dimethyl-N-((1-((3R,4R,5S,6R)-2,4,5-trihydroxy-6-(hydroxymethyl)tetrahydro-2H-pyran-3-yl)-1H-1,2,3-triazol-4-yl)methyl)methanaminium formation incubated for 72 hrs by LC-MS analysis; assay type: physicochemical; conditions: buffer
Fibroblast [10] = assay: Cytotoxicity against human fibroblast assessed as reduction in cell viability at 0.1 to 300 uM incubated for 72 hrs by MTT assay; assay type: toxicity, cell-based; conditions: dose 0.1-300 µM
A-375 [11] = assay: Cytotoxicity against human A-375 assessed as reduction in cell viability at 0.1 to 300 uM incubated for 24 to 48 hrs by MTT assay; assay type: functional, cell-based; conditions: dose 0.1-300 µM, time 24-48 hrs
A-375 [12] = assay: Cytotoxicity against human A-375 assessed as reduction in cell viability at 300 uM incubated for 24 to 72 hrs by MTT assay relative to control; assay type: functional; conditions: time 24-72 hrs
U-87 MG [13] = assay: Cytotoxicity against human U-87 MG assessed as reduction in cell viability at 0.1 to 300 uM incubated for 24 to 48 hrs by MTT assay; assay type: functional, cell-based; conditions: U-87MG ATCC, dose 0.1-300 µM, time 24-48 hrs
[14] = Stability of compound in 0.05 M HCL assessed as half life incubated for 72 hrs by LC-MS analysis; assay type: physicochemical
[15] = Stability of compound in 20 mM CH3COONH4 buffer at pH 5.8 assessed as solvolysis constant (K) incubated for 72 hrs by LC-MS analysis; assay type: physicochemical; design: unit not given beside the values; conditions: pH 5.8, 72 h
[16] = Stability of compound in 0.5 M NaOH assessed as solvolysis constant (K) incubated for 72 hrs by LC-MS analysis; assay type: physicochemical; design: unit not given beside the values
[17] = Stability of compound in 0.05 M HCL assessed as solvolysis constant (K) incubated for 72 hrs by LC-MS analysis; assay type: physicochemical; design: unit not given beside the values; conditions: buffer
U-87 MG [18] = assay: Cytotoxicity against human U-87 MG assessed as reduction in cell viability upto 100 uM incubated for 24 to 72 hrs by MTT assay; assay type: functional, cell-based; conditions: U-87MG ATCC, time 24-72 hrs
U-87 MG [19] = assay: Cytotoxicity against human U-87 MG assessed as reduction in cell viability at 300 uM incubated for 24 to 72 hrs by MTT assay relative to control; assay type: functional, U-87MG ATCC; conditions: time 24-72 hrs
A-375 [20] = assay: Cytotoxicity against human A-375 assessed as reduction in cell viability at 0.1 to 300 uM incubated for 72 hrs by MTT assay; assay type: functional, cell-based; conditions: dose 0.1-300 µM
[21] = Stability of compound at pH 7.5 in phosphate buffer at 2 mg/ml; assay type: physicochemical
A-375 [22] = assay: Cytotoxicity against human A-375 assessed as reduction in cell viability upto 100 uM incubated for 24 to 72 hrs by MTT assay; assay type: functional, cell-based; conditions: time 24-72 hrs
[23] = Stability of compound in 50 mM Tris-HCL buffer at pH 7.4 assessed as 1-borono-N,N-dimethyl-N-((1-((3R,4R,5S,6R)-2,4,5-trihydroxy-6-(hydroxymethyl)tetrahydro-2H-pyran-3-yl)-1H-1,2,3-triazol-4-yl)methyl)methanaminium formation incubated for 72 hrs by LC-MS analysis; assay type: physicochemical; conditions: pH 7.4, 72 h
[24] = Stability of compound in 50 mM Tris-HCL buffer at pH 7.4 assessed as solvolysis constant (K) incubated for 72 hrs by LC-MS analysis; assay type: physicochemical; conditions: pH 7.4, 72 h
[25] = Stability of compound in 0.5 M NaOH assessed as 1-borono-N,N-dimethyl-N-((1-((3R,4R,5S,6R)-2,4,5-trihydroxy-6-(hydroxymethyl)tetrahydro-2H-pyran-3-yl)-1H-1,2,3-triazol-4-yl)methyl)methanaminium formation incubated for 72 hrs by LC-MS analysis; assay type: physicochemical
[26] = Stability of compound in 0.5 M NaOH assessed as N,N,N-trimethyl-1-(1-((3R,4R,5S,6R)-2,4,5-trihydroxy-6-(hydroxymethyl)tetrahydro-2H-pyran-3-yl)-1H-1,2,3-triazol-4-yl)methanaminium formation incubated for 72 hrs by LC-MS analysis; assay type: physicochemical
[27] = Stability of compound in 0.5 M NaOH assessed as half life incubated for 72 hrs by LC-MS analysis; assay type: physicochemical
[28] = Stability of compound in 0.3 % H2O2 assessed as (3R,4R,5S,6R)-3-(4-((dimethylamino)methyl)-1H-1,2,3-triazol-1-yl)-6-(hydroxymethyl)tetrahydro-2H-pyran-2,4,5-triol formation incubated for 1 hrs by LC-MS analysis; assay type: physicochemical
[29] = Stability of compound in 50 mM Tris-HCL buffer at pH 7.4 assessed as half life incubated for 72 hrs by LC-MS analysis; assay type: physicochemical
[30] = Metabolic stability in mouse liver microsomes assessed as drug hydrolysis by measuring 1-borono-N,N-dimethyl-N-((1-((3R,4R,5S,6R)-2,4,5-trihydroxy-6-(hydroxymethyl)tetrahydro-2H-pyran-3-yl)-1H-1,2,3-triazol-4-yl)methyl)methanaminium formation incubated for 1 hrs by LC-MS/MS analysis; assay type: ADME, Microsome
Fibroblast [31] = assay: Cytotoxicity against human fibroblast assessed as reduction in cell viability at 300 uM incubated for 24 to 72 hrs by MTT assay relative to control; assay type: toxicity, cell-based; conditions: time 24-72 hrs
[32] = Stability of compound in 20 mM CH3COONH4 buffer at pH 5.8 assessed as 1-borono-N,N-dimethyl-N-((1-((3R,4R,5S,6R)-2,4,5-trihydroxy-6-(hydroxymethyl)tetrahydro-2H-pyran-3-yl)-1H-1,2,3-triazol-4-yl)methyl)methanaminium formation incubated for 72 hrs by LC-MS analysis; assay type: physicochemical; conditions: pH 5.8, 72 h
[33] = Stability of compound in 20 mM CH3COONH4 buffer at pH 5.8 assessed as N-(boronomethyl)-N-butyl-N-(2-(2-(2-(((2R,3R,4S,5S,6R)-3,4,5-trihydroxy-6-(hydroxymethyl)tetrahydro-2H-pyran-2-yl)oxy)ethoxy)ethoxy)ethyl)butan-1-aminium formation incubated for 72 hrs by LC-MS analysis; assay type: physicochemical; conditions: pH 5.8, 72 h
[34] = Stability of compound in 0.5 M NaOH assessed as N-(boronomethyl)-N-butyl-N-(2-(2-(2-(((2R,3R,4S,5S,6R)-3,4,5-trihydroxy-6-(hydroxymethyl)tetrahydro-2H-pyran-2-yl)oxy)ethoxy)ethoxy)ethyl)butan-1-aminium formation incubated for 72 hrs by LC-MS analysis; assay type: physicochemical
[35] = Metabolic stability in mouse liver microsomes assessed as drug hydrolysis by measuring N-(boronomethyl)-N-butyl-N-(2-(2-(2-(((2R,3R,4S,5S,6R)-3,4,5-trihydroxy-6-(hydroxymethyl)tetrahydro-2H-pyran-2-yl)oxy)ethoxy)ethoxy)ethyl)butan-1-aminium formation incubated for 1 hr by LC-MS/MS analysis; assay type: ADME, Microsome
[36] = Stability of compound in 0.3 % H2O2 assessed as (2R,3R,4S,5S,6R)-2-(2-(2-(2-(dibutylamino)ethoxy)ethoxy)ethoxy)-6-(hydroxymethyl)tetrahydro-2H-pyran-3,4,5-triol formation incubated for 1 hrs by LC-MS analysis; assay type: physicochemical
[37] = Stability of compound in 50 mM HCL assessed as N-(boronomethyl)-N-butyl-N-(2-(2-(2-(((2R,3R,4S,5S,6R)-3,4,5-trihydroxy-6-(hydroxymethyl)tetrahydro-2H-pyran-2-yl)oxy)ethoxy)ethoxy)ethyl)butan-1-aminium formation incubated for 72 hrs by LC-MS analysis; assay type: physicochemical; conditions: buffer
[38] = Stability of compound in phosphate/D2O buffer at pH 7.4 assessed as drug hydrolysis by measuring N-(boronomethyl)-N-butyl-N-(2-(2-(2-(((2R,3R,4S,5S,6R)-3,4,5-trihydroxy-6-(hydroxymethyl)tetrahydro-2H-pyran-2-yl)oxy)ethoxy)ethoxy)ethyl)butan-1-aminium formation incubated for 72 hrs by LC-MS analysis; assay type: physicochemical; conditions: pH 7.4, 72 h
[39] = Stability of compound in Tris-HCL buffer at pH 7.4 assessed as N-(boronomethyl)-N-butyl-N-(2-(2-(2-(((2R,3R,4S,5S,6R)-3,4,5-trihydroxy-6-(hydroxymethyl)tetrahydro-2H-pyran-2-yl)oxy)ethoxy)ethoxy)ethyl)butan-1-aminium formation incubated for 72 hrs by LC-MS analysis; assay type: physicochemical; conditions: pH 7.4, 72 h
[40] = Stability of compound in 0.9 % saline solution assessed as N-(boronomethyl)-N-butyl-N-(2-(2-(2-(((2R,3R,4S,5S,6R)-3,4,5-trihydroxy-6-(hydroxymethyl)tetrahydro-2H-pyran-2-yl)oxy)ethoxy)ethoxy)ethyl)butan-1-aminium formation incubated for 72 hrs by LC-MS analysis; assay type: physicochemical; conditions: buffer
[41] = Stability of compound in 0.5 M NaOH assessed as N-butyl-N-methyl-N-(2-(2-(2-(((2R,3R,4S,5S,6R)-3,4,5-trihydroxy-6-(hydroxymethyl)tetrahydro-2H-pyran-2-yl)oxy)ethoxy)ethoxy)ethyl)butan-1-aminium formation incubated for 72 hrs by LC-MS analysis; assay type: physicochemical

K [1]: 0.038 | half-life [3]: ~4.76 min | half-life [5]: 1100 min | remaining at 1 h [6]: 4.15% | Stability [7]: Stable | Stability [9]: Stable | half-life [14]: 54.2 min | K [15]: 8.731 | K [16]: 0.016 | K [17]: 0.766 | Stability [21]: Stable | Stability [23]: Stable | K [24]: 0.017 | Stability [25]: Stable | Stability [26]: Stable | half-life [27]: ≥ 1260 min | Stability [28]: Stable | half-life [29]: 1500 min | Drug metabolism [30]: metabolite_detected | Stability [32]: Stable
SMILES: C[N+](C)(Cc1cn([C@@H]2[C@@H](O)[C@H](O)[C@@H](CO)O[C@@H]2O)nn1)C[B-](F)(F)F
Activity (U-87 MG [2]): Active | Activity (Fibroblast [4]): Non-toxic | Activity (Fibroblast [8]): Non-toxic | Activity (Fibroblast [10]): Non-toxic | Activity (A-375 [11]): Active | Activity (A-375 [12]): -15% | Activity (U-87 MG [13]): Active | Activity (U-87 MG [18]): Active | Activity (U-87 MG [19]): -15% | Activity (A-375 [20]): Active | Activity (A-375 [22]): Active | Activity (Fibroblast [31]): -15%

K [1]: 0.102 | half-life [3]: 1370 min | Stability [33]: Stable | half-life [5]: 409 min | remaining at 1 h [6]: 8.89% | Stability [34]: Stable | Drug metabolism [35]: metabolite_detected | Stability [36]: Stable | Stability [37]: Stable | Stability [38]: Stable | half-life [14]: 15.9 min | K [15]: 0.03 | K [16]: 0.082 | K [17]: 2.617 | Stability [39]: Stable | K [24]: 0.086 | Stability [40]: Stable | half-life [27]: 508 min | Stability [41]: Stable | half-life [29]: 484 min
SMILES: CCCC[N+](CCCC)(CCOCCOCCO[C@@H]1O[C@H](CO)[C@@H](O)[C@H](O)[C@H]1O)C[B-](F)(F)F
